For nine compounds, IC50 results are on record in patent US20250002486A1, “CYCLIC SULFONAMIDE RIBONUCLEOTIDE REDUCTASE (RNR) INHIBITORS AND USES THEREOF” (Boundless Bio, Inc., priority 2021, published 2025).

Assay [1] addresses RNR (RNR1:RNR2 1:1) (Homo sapiens (Human), UniProt P23921). Kind of assay: RNR enzyme activity, rapid-fire mass spectrometry (RF/MS) assay. Particulars: RNR 50 nM, 1:1 RNR1:RNR2; CDP 5 μM, ATP 1 mM; 37° C., 45 min; compounds screened up to 50 μM. In kind it is biochemical. Here is the method: A rapid-fire mass spectrometry (RF/MS) assay was used to assess RNR enzyme activity using a 384 well plate and a robotic platform.
The plate layout included two validated reference compounds (Triapine (3-AP) and Hydroxyurea (HU)): • A dose response in duplicate; top concentration: 5 μM (3-AP) and 250 μM (HU), semi-log • dilutions. • Spike wells in triplicate randomly spotted at four concentrations: • 250 μM, 100 μM, 30 μM and 2 μM for HU • 5 μM, 2 μM, 0.6 μM and 0.04 μM for 3-AP
First, the multidrop pipes were saturated for 30 minutes with enzymatic solution. Then 30 μL of Stop solution was distributed in column 24. Next, 15 μL of enzyme was distributed in column 1 to 24. Next, a pre-incubation step of 15 minutes at room temperature occurred, followed by distribution of 15 μL of substrate solution (column 1 to 24). Next, the plate was incubated for 45 minutes at 37° C. 30 μL of Stop solution was distributed to columns 1 to 23.
The final parameters for the enzyme reactions were: • Incubation: 37° C., 45 min • [CDP]: 5 μM; [ATP]: 1 mM; [NADPH]: No • [RNR]final: 50 nM with 1:1 (RNR1:RNR2) ratio • Final volume: 30 μL • Stop solution: 6% HCOOH containing 2 μM of 15

In assay [2] the test system is pCHK1 (S345) in Colo320 DM cells. As to the kind of experiment: Alphalisa assay: pCHK1 (S345) detection in Colo320 DM cells. As to conditions: Homo sapiens, COLO 320DM, compound incubation overnight (approximately 16 hours), pCHK1 (S345) AlphaLisa Sure Fire kit. The assay is classed as cell-based, human. As for the experimental part: Colo320 DM cells (ATCC #CCL-220, derived from human colorectal adenocarcinoma, Dukes' type C) were seeded on a 96-well, cell culture treated assay plate at a density of 50,000 cells/well in 200 μL of RPMI-1640 media supplemented with 10% Fetal Bovine Serum and incubated at 37 degrees Celsius overnight. The following day, test compound dilutions were added directly to the plated cells by a Tecan digital dispenser to a final DMSO concentration of <0.5%. and incubated at 37 degrees Celsius overnight (approximately 16 hours). The following day all cull culture media was removed from the cells. 75 μL of 1× AlphaLisa lysis buffer was added to each well and plates were agitated on a shaker for 30 minutes at room temperature. The lysis of cells and detection of pCHK1 (S345) were performed with regents contained within the AlphaLisa Sure Fire assay kit (Perkin Elmer #ALSU-PCHK1-A) according to the manufacturer's instructions. 10 μL of each lysate was then transferred to a white, 384-well assay plate (Perkin Elmer #6008280). 5 μL of Acceptor mix was then added to each well of lysate in the white, 384-well assay plate and incubated in the dark at room temperature for 60 minutes. 5 μL of Donor mix was then added to each well of the white, 384-well assay plate in subdued light and incubated at room temperature for 60 minutes. Plates were read on an Alpha Technology-compatible plate reader using standard AlphaLisa settings.
Background: In Alpha technology, singlet oxygen from a donor bead excites a nearby acceptor bead.

SMILES strings stand for the structures.

Chain of RNR (RNR1:RNR2 1:1) (P23921 whole entry): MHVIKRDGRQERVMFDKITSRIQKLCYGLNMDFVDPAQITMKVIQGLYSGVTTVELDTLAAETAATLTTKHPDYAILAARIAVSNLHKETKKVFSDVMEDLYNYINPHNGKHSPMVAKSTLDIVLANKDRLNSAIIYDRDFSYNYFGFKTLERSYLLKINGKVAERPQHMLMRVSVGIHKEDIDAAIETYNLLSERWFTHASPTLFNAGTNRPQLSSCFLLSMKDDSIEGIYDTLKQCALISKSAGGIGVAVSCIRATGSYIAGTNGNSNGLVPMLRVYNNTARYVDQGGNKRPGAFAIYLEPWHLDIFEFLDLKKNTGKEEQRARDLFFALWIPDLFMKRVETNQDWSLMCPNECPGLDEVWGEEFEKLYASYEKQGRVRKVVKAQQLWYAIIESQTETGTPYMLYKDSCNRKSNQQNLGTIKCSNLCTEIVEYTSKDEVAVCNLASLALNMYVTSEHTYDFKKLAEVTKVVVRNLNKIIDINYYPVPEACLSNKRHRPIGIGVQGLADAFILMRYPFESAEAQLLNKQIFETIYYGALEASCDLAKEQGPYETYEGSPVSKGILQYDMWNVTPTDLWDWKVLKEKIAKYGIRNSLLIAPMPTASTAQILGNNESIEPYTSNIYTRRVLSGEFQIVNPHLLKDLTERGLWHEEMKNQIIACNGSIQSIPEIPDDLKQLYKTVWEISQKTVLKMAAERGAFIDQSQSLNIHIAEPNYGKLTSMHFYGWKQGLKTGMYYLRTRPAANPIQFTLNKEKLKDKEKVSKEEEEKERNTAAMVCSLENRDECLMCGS

Take `Cc1ccc(F)c([C@@H](C)[C@@H](c2n[nH]c(=O)o2)N2CCc3c(Cl)cccc3S2(=O)=O)c1C` [Example 23, 5-((1S,2R)-1-(5-chloro-1,1-dioxido-3,4-dihydro-2H-benzo[e][1,2]thiazin-2-yl)-2-(6-fluoro-2,3-dimethylphenyl)propyl)-1,3,4-oxadiazol-2(3H)-one]: the figures for the half-maximal inhibitory concentration (IC50) in assay [1] and in assay [2] were 0.1 to 1 µM and 10 to 50 µM, respectively.

Consider `Cc1ccc(F)c([C@@H](C)[C@@H](c2n[nH]c(=O)o2)N2C(=O)c3cc(Cl)ccc3S2(=O)=O)c1C` [Example 1, 5-((1S,2R)-1-(5-chloro-1,1-dioxido-3-oxobenzo[d]isothiazol-2(3H)-yl)-2-(6-fluoro-2,3-dimethylphenyl)propyl)-1,3,4-oxadiazol-2(3H)-one], for which the IC50 in assay [1] is 10 to 100 µM; in assay [2], above 50 µM.

With `Cc1ccc(F)c(C(C)[C@@H](c2n[nH]c(=O)o2)N2CC(=O)c3cc(Cl)ccc3S2(=O)=O)c1C` (stereo partly drawn) [Example 16, 5-((1S)-1-(6-chloro-1,1-dioxido-4-oxo-3,4-dihydro-2H-benzo[e] [1,2]thiazin-2-yl)-2-(6-fluoro-2,3-dimethylphenyl)propyl)-1,3,4-oxadiazol-2(3H)-one], the IC50 in assay [1] was in the range of 0.1 to 1 µM; in assay [2] it was 5 to 10 µM.

Regarding `Cc1ccc(F)c([C@@H](C)[C@@H](c2n[nH]c(=O)o2)N2CC(O)c3cc(Cl)ccc3S2(=O)=O)c1C` (stereo partly drawn) [Example 19, 5-((1S,2R)-1-(6-chloro-4-hydroxy-1,1-dioxido-3,4-dihydro-2H-benzo[e][1,2]thiazin-2-yl)-2-(6-fluoro-2,3-dimethylphenyl)propyl)-1,3,4-oxadiazol-2(3H)-one], the IC50 in assay [1] lay within 0.1 to 1 µM; in assay [2], 10 to 50 µM.

In the case of `Cc1ccc(F)c(C(C)[C@@H](c2n[nH]c(=O)o2)N2C[C@H](O)[C@H](O)c3cc(Cl)ccc3S2(=O)=O)c1C` (stereo partly drawn) [Example 26, 5-((1S)-1-((4S, 5R)-7-chloro-4,5-dihydroxy-1,1-dioxido-4,5-dihydrobenzo [f][1,2]thiazepin-2(3H)-yl)-2-(6-fluoro-2,3-dimethylphenyl)propyl)-1,3,4-oxadiazol-2(3H)-one], the IC50 was at most 0.1 µM in assay [1] and 10 to 50 µM in assay [2].

With `Cc1ccc(F)c([C@@H](C)[C@@H](c2n[nH]c(=O)o2)N2CC(C)(O)c3cc(Cl)ccc3S2(=O)=O)c1C` (stereo partly drawn) [Example 25, 5-((1S,2R)-1-(6-chloro-4-hydroxy-4-methyl-1,1-dioxido-3,4-dihydro-2H-benzo[e][1,2]thiazin-2-yl)-2-(6-fluoro-2,3-dimethylphenyl)propyl)-1,3,4-oxadiazol-2(3H)-one], the IC50 in assay [1] was at most 0.1 µM; in assay [2], 10 to 50 µM.

Consider `Cc1ccc(F)c([C@@H](C)[C@@H](c2n[nH]c(=O)o2)N2CCc3cc(Cl)ncc3S2(=O)=O)c1C` [Example 27, 5-((1S,2R)-1-(6-chloro-1,1-dioxido-3,4-dihydro-2H-pyrido[4,3-e] [1,2]thiazin-2-yl)-2-(6-fluoro-2,3-dimethylphenyl)propyl)-1,3,4-oxadiazol-2(3H)-one], for which the IC50 in assay [1] is 0.1 to 1 µM; in assay [2], above 50 µM.

Regarding `Cc1ccc(F)c([C@@H](C)[C@@H](c2n[nH]c(=O)o2)N2Cc3cc(Cl)ccc3S2(=O)=O)c1C` [Example 14, 5-((1S,2R)-1-(5-chloro-1,1-dioxidobenzo [d]isothiazol-2(3H)-yl)-2-(6-fluoro-2,3-dimethylphenyl)propyl)-1,3,4-oxadiazol-2(3H)-one], the IC50 is 1 to 10 µM in assay [1] and above 50 µM in assay [2].

On to `Cc1ccc(F)c([C@@H](C)[C@@H](c2n[nH]c(=O)o2)N2CCc3nc(Cl)ccc3S2(=O)=O)c1C` [Example 24, 5-((1S,2R)-1-(6-chloro-1,1-dioxido-3,4-dihydro-2H-pyrido[2,3-e] [1,2]thiazin-2-yl)-2-(6-fluoro-2,3-dimethylphenyl)propyl)-1,3,4-oxadiazol-2(3H)-one], for which the IC50 is at most 0.1 µM in assay [1] and at most 5 µM in assay [2].

One may read the IC50 as the midpoint of a concentration-inhibition curve. The low end stands for greater potency, the high end for weaker potency.
